According to BindingDB's records for doi:10.1021/jm970414b (University of Michigan, 1997):
pKi: −log10 of the molar value.

Target: Glutathionylspermidine synthetase/amidase (Escherichia coli) (UniProt P0AES0)
Assay: Inhibition of Glutathionylspermidine synthetase from Escherichia coli, value taken from literature

Chain of Glutathionylspermidine synthetase/amidase (Escherichia coli) (P0AES0 whole entry, looked up): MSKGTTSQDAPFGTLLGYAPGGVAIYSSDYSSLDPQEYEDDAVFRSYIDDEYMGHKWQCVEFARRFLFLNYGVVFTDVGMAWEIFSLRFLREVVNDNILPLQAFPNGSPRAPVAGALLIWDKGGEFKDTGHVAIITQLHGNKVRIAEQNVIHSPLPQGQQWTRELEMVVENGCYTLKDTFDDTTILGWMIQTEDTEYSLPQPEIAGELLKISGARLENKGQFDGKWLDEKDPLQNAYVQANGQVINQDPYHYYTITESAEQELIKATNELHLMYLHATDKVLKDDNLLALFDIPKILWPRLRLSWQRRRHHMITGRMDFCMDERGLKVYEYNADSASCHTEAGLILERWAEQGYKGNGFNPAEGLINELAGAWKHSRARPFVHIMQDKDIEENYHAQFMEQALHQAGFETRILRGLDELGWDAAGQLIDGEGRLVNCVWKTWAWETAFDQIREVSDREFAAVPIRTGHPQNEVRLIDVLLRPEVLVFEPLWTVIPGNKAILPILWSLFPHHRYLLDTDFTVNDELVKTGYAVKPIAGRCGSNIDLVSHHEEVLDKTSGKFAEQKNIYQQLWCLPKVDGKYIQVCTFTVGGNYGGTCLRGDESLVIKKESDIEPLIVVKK

C[C@H](NC(=O)CC[C@H](N)C(=O)O)C(=O)NCP(=O)(O)OCCCNCCCCN [2-Amino-4-[1-({[3-(4-amino-butylamino)-propoxy]-hydroxy-phosphorylmethyl}-carbamoyl)-ethylcarbamoyl]-butyric acid]
pKi: 4.85
